Where two headings read alike, the source gives them in different places.
Columns and labels:
[1] = Rescuing DMSO from damage attributed to the hydroxyl radical (Fenton reaction); format: biochemical; details: for Yield (%) or amount of product (Formaldehyde): substrate DMSO; for preventing oxidative damage / protection against metal-induced oxidation of substrates: summary of Table 3
Source text: Corrole complexes were examined with respect to their efficiency of rescuing DMSO from damage attributed to the hydroxyl radical, formed via the Fenton reaction that also involves superoxide anion radical and hydrogen […]. It also mimics reaction occurring in biological systems that are exposed to metal toxicity, the situation that occurs in diseases caused by brain iron accumulation.

[2] = test system: INS-1E cells; experiment: Protection of INS-1E beta cells against H2O2 toxicity; format: cell-based, rat; details: 20 and 50 μM, 30 min before increasing H2O2 concentrations, 24 h
Protocol: Two insulin-secreting beta cell lines, rat insulinoma (INS-1E) and RIN-m cells, were used to examine the protective effect of corrole 1C-Fe. The cells were cultured at 37° C., in a humid 5% CO2, 95% air environment in regular RPMI-1640 medium (Invitrogen) supplemented with 5% fetal calf serum (FCS).
After 2 days of culture, INS-1E cells (5×10^4 cells/well in 96-well plates) were treated with corrole 1C-Fe (20 and 50 μM) added 30 minutes prior to treatment with increasing concentrations of H2O2 and then further incubated for 24 h.

[3] = test system: INS-1E cells; experiment: Protection of INS-1E cells against SIN-1 toxicity (MTT); format: cell-based, rat; details: 10 μM, 30 min before SIN-1 (500 or 600 μM), 24 h
Protocol: INS-1E cells or RIN-m cells were cultured in RPMI with low serum content (2% FCS), placed in microtiter plates (96 wells) at a density of 2.5×10^4 cells/well and allowed to attach for 24 h before treatment. Corroles 1C-Fe and 5C-Fe (10 μM) were added 30 min prior to insult with the nitric oxide donor SIN-1 (500 or 600 μM) for a subsequent 24 h period. Cell viability was evaluated by a colorimetric assay for mitochondrial function using 3-(4,5-dimethylthiazol-2-yl)-2,5-diphenyltetrazolium bromide (MTT test), and expressed as percentage of untreated control. Values higher than 100% reflect increased mitochondrial activity induced by the drug. The results represent the mean±SEM of three independent experiments performed under the same conditions.

[4] = test system: SH-SY5Y cells; format: cell-based
Protocol: Human neuroblastoma cell line was also examined under conditions similar to RIN-m cells to reveal the corrole's ability to prevent neuronal death caused by oxidative stress. SH-SY5Y cells were plated in microtiter plates (96 wells) in DMEM-Eagle/F-12(HAM) (1:1), containing 10% FCS. To examine neuroprotective effect, SH-SY5Y cells were treated for 30 min with corroles 1C-Fe and 5C-Fe (20 and 50 μM) before addition of 20 μM H2O2 for 24 h. To examine neurorescue, SH-SY5Y cells were first exposed to 20 μM H2O2 for 0.5 h, 1.5 h or 3 h, followed by the addition of corroles 1C-Fe and 5C-Fe (20 μM) and incubation for 24 h.
Compounds 1C-Fe and 1P-Fe (1-50 μM) were added 30 min before insult with H2O2 (200 μM), followed by a subsequent 24 h period. The neuroprotective effects of the iron corrole 1C-Fe and its structurally analogous iron porphyrin 1P-Fe, against H2O2-induced neurotoxicity were investigated using MTT reduction assay and cell death ELISA, based on the use of mouse monoclonal antibodies to detect free histones and fragmented DNA (F. Hollderieder et al, Biochemica 2002, 1, 25). […] In light of the observed neuroprotective effect of corrole 1C-Fe, we attempted to determine the length of the delay between H2O2 exposure and corrole 1C-Fe treatment that would still afford neuroprotection. H2O2 was administered to SH-SY5Y cells and corrole 1C-Fe was then added for 0.5-1.5 h thereafter. […]

[5] = test system: SH-SY5Y cells; experiment: Neuroprotection/neurorescue against SIN-1-induced cell death in SH-SY5Y cells; format: cell-based, human; details: for protection against SIN-1 (MTT reduction analysis and ELISA assay): 30 min before SIN-1, 24 h (Example 12)
Protocol: SH-SY5Y cells were cultured in DMEM-Eagle/F-12(HAM) (1:1) containing 10% FCS. Cells were resuspended in medium containing 2% FCS, seeded in microtiter plates (96 wells) and allowed to attach for 24 h before initiation of treatment. […]

[6] = test system: nitrotyrosine (Ntyr); experiment: SIN-1-induced cellular protein nitration, nitrotyrosine immunofluorescence in SH-SY5Y cells; format: cell-based, human; details: 20 μM corrole, SIN-1 700 μM, 24 h
Protocol: To determine the effect of the corroles on SIN-1-induced cellular protein nitration, SH-SY5Y neuroblastoma cells were treated with SIN-1 (700 μM) in the absence or presence of 20 μM of the corroles 1C-Fe, 2C-Mn, and 3C-Mn. Protein nitration was detected by immunofluorescence analysis using a monoclonal antibody against nitrotyrosine (Ntyr), a biological marker of peroxynitrite.

[7] = target: albumin (Homo sapiens, UniProt P02768); experiment: Binding of corrole complexes to albumin; details: preliminary experiments
Source text: (§1) Issues regarding biodistribution, transport mechanisms, accumulation in specific organs, and the eventual elimination of administered compounds are among the prime concerns when it comes to real life utilization of potential drugs. This can be addressed by several and quite different means, including in vitro, in vivo and ex-vivo examinations. One way to predict distribution is via examination of the binding of the corroles to circulating proteins that might act as transporters, similar to experiment performed previously by the inventors with metal complexes of corrole 1C (Scheme 1), which spontaneously form tightly bound non-covalent bioconjugates with HDL (Haber et al., 2007), albumin (Mahammed et al., 2004), and transferrin (Haber and Gross. 2007) (listed in increasing order of affinity), as well as with semi-synthetic proteins (Agadjanian et al., 2006). […] A more direct approach relies on the strong fluorescence of corroles that are not chelated by transition metals (no metal such as in corroles 1C and 2C, or using corrole Ga/Al complexes such as 1C-Ga). This feature is used for testing cell entry via confocal microscopy (Agadjanian et al., 2006), without the need of attaching a fluorescent tag. Furthermore, it may even be used for whole animal imaging purposes, as shown in Example 4 hereinabove. […]

[8] = target: transferrin (Homo sapiens, UniProt P02787); experiment: Binding of corrole complexes to transferrin; details: preliminary experiments
Source text: as §1

[9] = test system: SH-SY5Y cells; format: cell-based; details: up to 50 μM; data not shown
[10] = CuSO4/ascorbate, no additive 44 μM
[11] = CuSO4/glutathione, no additive 11 μM

transferrin, sequence (P02787 20-698, species assumed): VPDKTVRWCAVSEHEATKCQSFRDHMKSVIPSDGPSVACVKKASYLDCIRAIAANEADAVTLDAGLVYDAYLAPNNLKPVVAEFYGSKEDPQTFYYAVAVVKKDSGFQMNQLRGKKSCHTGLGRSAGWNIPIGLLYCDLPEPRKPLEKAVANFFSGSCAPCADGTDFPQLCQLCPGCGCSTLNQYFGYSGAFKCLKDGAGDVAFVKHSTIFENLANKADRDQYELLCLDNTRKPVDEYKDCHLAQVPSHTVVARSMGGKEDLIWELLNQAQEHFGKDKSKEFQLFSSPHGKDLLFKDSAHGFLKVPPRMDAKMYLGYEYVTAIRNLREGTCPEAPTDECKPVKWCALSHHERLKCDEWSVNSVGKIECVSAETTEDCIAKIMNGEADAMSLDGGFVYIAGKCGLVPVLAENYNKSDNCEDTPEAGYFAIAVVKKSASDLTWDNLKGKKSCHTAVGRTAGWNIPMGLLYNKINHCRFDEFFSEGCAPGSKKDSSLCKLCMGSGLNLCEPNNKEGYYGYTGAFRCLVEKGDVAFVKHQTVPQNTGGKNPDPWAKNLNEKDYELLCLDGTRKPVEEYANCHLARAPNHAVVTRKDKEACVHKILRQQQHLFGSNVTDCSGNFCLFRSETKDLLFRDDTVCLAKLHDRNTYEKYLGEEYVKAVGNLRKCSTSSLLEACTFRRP
albumin, sequence (P02768 25-609): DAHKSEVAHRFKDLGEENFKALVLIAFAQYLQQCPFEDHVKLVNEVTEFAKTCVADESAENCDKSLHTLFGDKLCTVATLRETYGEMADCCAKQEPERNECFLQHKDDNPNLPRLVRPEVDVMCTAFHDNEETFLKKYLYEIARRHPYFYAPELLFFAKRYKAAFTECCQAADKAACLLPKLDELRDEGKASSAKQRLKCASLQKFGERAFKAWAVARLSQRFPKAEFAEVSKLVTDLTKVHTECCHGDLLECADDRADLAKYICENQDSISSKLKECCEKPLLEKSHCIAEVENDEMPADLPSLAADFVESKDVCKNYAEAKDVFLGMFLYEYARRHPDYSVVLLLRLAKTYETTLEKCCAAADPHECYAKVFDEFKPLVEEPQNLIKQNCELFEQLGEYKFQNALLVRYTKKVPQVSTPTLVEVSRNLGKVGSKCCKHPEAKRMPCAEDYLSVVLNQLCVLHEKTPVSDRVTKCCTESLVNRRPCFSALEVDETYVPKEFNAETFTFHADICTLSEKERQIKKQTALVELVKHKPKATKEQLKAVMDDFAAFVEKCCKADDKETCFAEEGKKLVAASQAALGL

SMILES: O=S(=O)(O)c1cc2[n]3c1C(c1c(F)c(F)c(F)c(F)c1F)=C1C=CC4=[N+]1[Fe-]31[n]3c(cc(S(=O)(=O)O)c3-2)C(c2c(F)c(F)c(F)c(F)c2F)=c2ccc([n]21)=C4c1c(F)c(F)c(F)c(F)c1F (centres unmarked) [1C-Fe, 2,17-bis(sulfonato)-5,10,15-tris(pentafluorophenyl)-corrolato iron(III)]
- Yield (%) or amount of product (Formaldehyde) [1, 10]: 0 µM
- Yield (%) or amount of product (Formaldehyde) [1, 11]: 0 µM
- preventing oxidative damage / protection against metal-induced oxidation of substrates [1]: very potent in preventing the oxidative damage
- protective effect against H2O2 toxicity [2]: significant protective effect
- protective effect against SIN-1 induced toxicity (MTT) [3]: marked protective effect
- neurorescue after H2O2 insult ([4]; 20 μM H2O2 for 0.5, 1.5 or 3 h, then 20 μM corrole, 24 h): instigated neurorescue
- cell viability (MTT reduction) ([4]; 1-20 μM, 30 min before 200 μM H2O2, 24 h): dose-dependently increased cell viability
- neuroprotective effect, corrole added after H2O2 ([4]; 1 and 1.5 h post-H2O2 insult, extent of protection gradually decreased): significantly protected
- neuroprotective effect against H2O2-induced toxicity ([4]; 20 and 50 μM, 30 min before 20 μM H2O2, 24 h): dose-dependent neuroprotective effect
- cell death (ELISA detection assay) ([4]; 30 min before 200 μM H2O2, 24 h): significantly and dose-dependently protected
- neuroprotective effect, corrole added after H2O2 ([4]; 0.5 h post-H2O2 insult): remained unaltered
- protection from H2O2-induced neurotoxicity compared with porphyrin ([4]; all concentrations studied (1-50 μM), 200 μM H2O2): displayed superiority over porphyrin 1P-Fe
- neurorescue after SIN-1 insult ([5]; 20 μM added 0.5, 1.5 or 3 h after insult, 24 h (Example 11)): instigated neurorescue
- cytoprotection against different SIN-1 concentrations ([5]; 25 μM corrole, FIG. 12C): protect cells against different SIN-1 concentrations
- neuroprotective effect against SIN-1 induced toxicity ([5]; 10 and 20 μM, 30 min pretreatment, 24 h (Example 11)): dose-dependent neuroprotective effect
- inhibition of neuronal death by SIN-1 ([5]; 10 and 20 μM, less potent than 2C-Mn and 3C-Mn): able to inhibit neuronal death
- protection against SIN-1 (MTT reduction analysis and ELISA assay) [5]: protect, in a dose-dependent manner
- nitrotyrosine (Ntyr) staining, SIN-1-induced [6]: partial (albeit quite remarkable) reduction in Ntyr staining

SMILES: C[n+]1ccc(C2=C3C=CC4=[N+]3[Mn-]35[n]6c2ccc6-c2ccc([n]23)C(c2cc[n+](C)cc2)=c2ccc([n]25)=C4c2c(F)c(F)c(F)c(F)c2F)cc1.[I-].[I-] (centres unmarked) [2C-Mn, 5,15-bis(4-N-methyl-pyridilium)-10-pentafluorophenyl-corrolato manganese(III) diiodide salt]
- Yield (%) or amount of product (Formaldehyde) [1, 10]: 7 µM
- Yield (%) or amount of product (Formaldehyde) [1, 11]: 5 µM
- preventing oxidative damage / protection against metal-induced oxidation of substrates [1]: protect better than corrole 1C-Mn
- protection against SIN-1 (MTT reduction analysis and ELISA assay) [5]: protect, in a dose-dependent manner
- nitrotyrosine (Ntyr) staining, SIN-1-induced [6]: totally abolished
- binding to albumin [7]: do not bind to albumin
- binding to transferrin [8]: still do so for transferrin
- preventing H2O2-mediated cytotoxicity [9]: not effective
